# Read-outs that look alike come from different tables or passages of the source.
# Key:
# [1] = test system: Key Broadleaf Weed and Crop Species; experiment: Post-Emergent Test II (Table 5); format: in vivo; settings: post-emergence, 336 h; for pest or weed control at 54.5 g/ha: application rate 54.5 (kg ai/ha; footnote: g ai/ha); for pest or weed control at 109 g/ha: application rate 109 (kg ai/ha; footnote: g ai/ha)
# Outline: (§1)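 Visual injury ratings (0 = no injury, 100 = complete kill) taken 14 days after treatment, relative to untreated controls. Compounds, in an acetone/DMSO aqueous carrier with crop oil and surfactant, were applied by track sprayer at 187 L/ha, in a twofold dilution series from the top rate, to plants at the first to second true-leaf stage.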
# [2] = test system: Key Grass and Sedge Weeds as well as Grass Crops; experiment: Post-Emergent Test II (Table 6); format: in vivo; settings: post-emergence, 336 h, 14 days after application; for pest or weed control at 54.5 g/ha: 54.5 g ai/ha; for pest or weed control at 109 g/ha: 109 g ai/ha
# Outline: as §1
# [3] = Abutilon theophrasti, ABUTH: velvetleaf (Abutilon theophrasti), read-out: Visual Growth Reduction (%) 14 Days After Application ABUTH
# [4] = Amaranthus retroflexus, AMARE: redroot pigweed (Amaranthus retroflexus), read-out: Visual Growth Reduction (%) 14 Days After Application AMARE
# [5] = Brassica napus, BRSSS: oilseed rape, canola (Brassica napus), read-out: Visual Growth Reduction (%) 14 Days After Application BRSSS
# [6] = Chenopodium album, CHEAL: lambsquarters (Chenopodium album), read-out: Visual Growth Reduction (%) 14 Days After Application CHEAL
# [7] = Euphorbia heterophylla, EPHHL: wild poinsettia (Euphorbia heterophylla), read-out: Visual Growth Reduction (%) 14 Days After Application EPHHL
# [8] = Helianthus annuus, HELAN: sunflower (Helianthus annuus), read-out: Visual Growth Reduction (%) 14 Days After Application HELAN
# [9] = Viola tricolor, VIOTR: wild pansy (Viola tricolor), read-out: Visual Growth Reduction (%) 14 Days After Application VIOTR
# [10] = DIGSA: crabgrass (Digitaria sanguinalis), read-out: Visual Growth Reduction (%) 14 Days After Application DIGSA
# [11] = ECHSS, read-out: Visual Growth Reduction (%) 14 Days After Application ECHSS
# [12] = ORYSS (crop), read-out: Visual Growth Reduction (%) 14 Days After Application ORYSS
# [13] = SETFA: giant foxtail (Setaria faberi), read-out: Visual Growth Reduction (%) 14 Days After Application SETFA
# [14] = SORVU: grain sorghum (Sorghum vulgare), read-out: Visual Growth Reduction (%) 14 Days After Application SORVU
# [15] = TRZSS (crop), read-out: Visual Growth Reduction (%) 14 Days After Application TRZSS
# [16] = ZEAMX: maize, corn (Zea mays), read-out: Visual Growth Reduction (%) 14 Days After Application ZEAMX
compound,measurement,setting,value
COC(=O)c1nc(-c2ccc(Cl)c(F)c2SC)c(F)c(N)c1Cl [Compound 18],pest or weed control at 54.5 g/ha,[1]; [3],60 to 74%
same,pest or weed control at 109 g/ha,[1]; [3],60 to 74%
same,pest or weed control at 54.5 g/ha,[1]; [4],75 to 84%
same,pest or weed control at 109 g/ha,[1]; [4],95 to 100%
same,pest or weed control at 54.5 g/ha,[1]; [5],0 to 29%
same,pest or weed control at 109 g/ha,[1]; [5],0 to 29%
same,pest or weed control at 54.5 g/ha,[1]; [6],85 to 94%
same,pest or weed control at 109 g/ha,[1]; [6],85 to 94%
same,pest or weed control at 54.5 g/ha,[1]; [7],0 to 29%
same,pest or weed control at 109 g/ha,[1]; [7],0 to 29%
same,pest or weed control at 54.5 g/ha,[1]; [8],75 to 84%
same,pest or weed control at 109 g/ha,[1]; [8],75 to 84%
same,pest or weed control at 54.5 g/ha,[1]; [9],0 to 29%
same,pest or weed control at 109 g/ha,[1]; [9],0 to 29%
same,pest or weed control at 54.5 g/ha,"[2]; CYPSS, read-out: Visual Growth Reduction (%) 14 Days After Application CYPSS",95 to 100%
same,pest or weed control at 54.5 g/ha,[2]; [10],0 to 29%
same,pest or weed control at 109 g/ha,[2]; [10],0 to 29%
same,pest or weed control at 54.5 g/ha,[2]; [11],0 to 29%
same,pest or weed control at 109 g/ha,[2]; [11],0 to 29%
same,pest or weed control at 54.5 g/ha,[2]; [12],0 to 29%
same,pest or weed control at 109 g/ha,[2]; [12],0 to 29%
same,pest or weed control at 54.5 g/ha,[2]; [13],0 to 29%
same,pest or weed control at 109 g/ha,[2]; [13],0 to 29%
same,pest or weed control at 54.5 g/ha,[2]; [14],0 to 29%
same,pest or weed control at 109 g/ha,[2]; [14],0 to 29%
same,pest or weed control at 54.5 g/ha,[2]; [15],0 to 29%
same,pest or weed control at 109 g/ha,[2]; [15],0 to 29%
same,pest or weed control at 54.5 g/ha,[2]; [16],0 to 29%
same,pest or weed control at 109 g/ha,[2]; [16],0 to 29%

# Source: US10765114B2, “4-amino-6-(pyridyl and 2-substitutedphenyl)-picolinates and 6-amino-2-(pyridyl and 2-substitutedphenyl)-pyrimidine-4-carboxylates and their use as herbicides” (Dow AgroSciences LLC, priority 2013, dated 2020)
